From patent US10981932B2, “Macrocyclic indole derivatives” (Bayer Aktiengesellschaft, priority 2016, dated 2021)
Values joined by “and” are separate entries in the source; they are usually repeats but may differ in a detail not shown here. Equal entries are not always repeated. Where two headings read alike, the source gives them in different places.

How the values were obtained:
OPM2 = test: Anti-proliferative effect (CellTiter-Glo, 72 h), OPM2; type: cell-based; details: OPM2 cells, median, read-out: IC50 antiproliferation assay OPM2 [M] (median)
Description: Assessment of the Anti-Proliferative Effect of Compounds in Different Cell Lines
The impact of compounds on the proliferation of different cell lines was assessed using the CellTiter-Glo® Luminescent Cell Viability reagent from Promega (G7573). Of note, SUDHL10 and SUDHL5 (DLBCL), NCI-H929 (Multiple Myeloma), A2780 (ovarian carcinoma) as well as MV-4-11(AML) cells are sensitive to MCL-1 inhibition.
In parallel, cells were plated in a reference (day 0) plate for time zero determination.
Rim wells were excluded. The cells were incubated for 72 h hours in a humidified incubator at 37° C. The day 0 plate was measured by adding 30 μl/well of CTG solution (CellTiter-Glo® Luminescent Cell Viability reagent, Promega G7573) to time zero wells in the reference plate followed by a 10 minutes incubation and luminescence reading at 0.1 ms, using the PHERAstar FS microplate reader (BMG Labtech).
After 72 h incubation, the treated plates were measured in the same way as the day 0 plate mentioned above.

A2780 = test: Anti-proliferative effect (CellTiter-Glo, 72 h), A2780; type: cell-based; details: A2780 cells, median, read-out: IC50 antiproliferation assay A2780 [M] (median)
Method in brief: (§1)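 Viable cells quantified with CellTiter-Glo after 72 h at 37 °C; rim wells excluded; day 0 plate as baseline.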

MCL-1 = MCL-1 (Homo sapiens, UniProt Q07820); test: Protein-protein interaction assay MCL-1/Noxa BH3 peptide (MCL-1 assay), TR-FRET; type: binding; details: MBP-MCL-1 / Noxa BH3-derived peptide, median
Method in brief: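 Displacement of the biotinylated Noxa BH3 peptide from MBP-tagged human MCL-1 (1 nM) is detected by time-resolved FRET. Compounds are tested in duplicate across eleven concentrations up to 20 μM, incubated 1 h at 22 °C and overnight at 4 °C, and IC50 is fitted with a four-parameter equation.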

SUDHL10 [1] = test: Induction of caspase-3/7 activity (Caspase-Glo 3/7), SUDHL10; type: cell-based; details: caspase-3/7 induction, SUDHL10 cells, 3 h treatment, median
Method in brief: (§2)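 Caspase-Glo 3/7 luminescence, 3 h compound exposure, 37 °C, humidified. Minus medium-only blank. EC50 fit: C0=1, plateau = reference max induction.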

SUDHL5 [2] = test: Induction of caspase-3/7 activity (Caspase-Glo 3/7), SUDHL5; type: cell-based; details: caspase-3/7 induction, SUDHL5 cells, 3 h treatment, median
Method in brief: as §2

SUDHL5 [3] = test: Induction of cytotoxicity (CellTiter-Glo, 5 h), SUDHL5
SUDHL10 [4] = test: Induction of cytotoxicity (CellTiter-Glo, 5 h), SUDHL10
SUDHL10 [5] = test: Anti-proliferative effect (CellTiter-Glo, 72 h), SUDHL10; type: cell-based; details: SUDHL10 cells, antiproliferation, 72 h incubation, median, read-out: Antiproli SUDHL10 [M] (median)
Method in brief: as §1

SUDHL5 [6] = test: Anti-proliferative effect (CellTiter-Glo, 72 h), SUDHL5; type: cell-based; details: Homo sapiens, SU-DHL-5, 72 h, SUDHL5 cells, antiproliferation, 72 h incubation, median, read-out: Antiproli SUDHL5 [M] (median)
Method in brief: as §1

[7] = Homo sapiens, SU-DHL-5, 5 h, read-out: Cytotox SUDHL5 [M] (median), SUDHL5 cells, cytotoxicity induction, CellTiter-Glo, 5 h incubation, median
[8] = Homo sapiens, SU-DHL10, 5 h, read-out: Cytotox SUDHL10 [M] (median), SUDHL10 cells, cytotoxicity induction, CellTiter-Glo, 5 h incubation, median
[9] = read-out: Cytotox SUDHL5 [M] (median), SUDHL5 cells, cytotoxicity induction, CellTiter-Glo, 5 h incubation, median
[10] = read-out: Cytotox SUDHL10 [M] (median), SUDHL10 cells, cytotoxicity induction, CellTiter-Glo, 5 h incubation, median

MCL-1, sequence (Q07820 whole entry): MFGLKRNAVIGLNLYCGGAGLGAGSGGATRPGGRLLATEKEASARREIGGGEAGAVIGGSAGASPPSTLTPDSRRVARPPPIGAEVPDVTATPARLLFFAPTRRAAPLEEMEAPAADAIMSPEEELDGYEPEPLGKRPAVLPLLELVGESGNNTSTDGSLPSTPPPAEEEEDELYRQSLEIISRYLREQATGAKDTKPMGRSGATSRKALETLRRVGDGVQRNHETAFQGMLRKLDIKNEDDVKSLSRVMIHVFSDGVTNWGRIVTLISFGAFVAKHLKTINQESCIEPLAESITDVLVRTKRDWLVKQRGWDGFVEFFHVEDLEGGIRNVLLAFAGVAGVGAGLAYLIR

Row | SMILES | IC50 (OPM2; Homo sapiens, OPM-2, 72 h) [M] | IC50 (A2780; Homo sapiens, A2780, 72 h) [M] | IC50 (MCL-1) [µM] | EC50 (SUDHL10 [1]; Homo sapiens, SU-DHL10, 3 h) [µM] | EC50 (SUDHL5 [2]; Homo sapiens, SU-DHL-5, 3 h) [µM] | IC50 (SUDHL5 [3]; [7]) [M] | IC50 (SUDHL10 [4]; [8]) [M] | IC50 (SUDHL10 [5]; Homo sapiens, SU-DHL10, 72 h) [M] | EC50 (SUDHL10 [1]) [µM] | EC50 (SUDHL5 [2]) [µM] | IC50 (SUDHL10 [5]) | IC50 (OPM2) [M] | IC50 (SUDHL5 [6]) [M] | IC50 (SUDHL5 [3]; [9]) [M] | IC50 (SUDHL10 [4]; [10]) [M] | IC50 (A2780) [M]
1 | CC(C)OCc1nn(C)c2c1-c1cccc3c(CCCOc4cccc5ccccc45)c(C(=O)O)n(c13)CCCN(C)C2 (racemic) [Example 1-70, (rac)-7,9-dimethyl-1-[3-(naphthalen-1-yloxy)propyl]-11-[(propan-2-yloxy)methyl]-4,5,6,7,8,9-hexahydropyrazolo[3′,4′:78][1,5]diazecino[9,10,1-hi]indole-2-carboxylic Acid] | 1.22e-05 | 1.82e-05 | 0.02 | > 33 | > 33 | > 3.3e-05 | 2.78e-05 | 1.31e-05 |  |  |  |  |  |  |  | 
2 | Cc1nn(C)c2c1-c1cccc3c(CCCOc4cccc5ccccc45)c(C(=O)O)n(c13)CCN(c1ccccc1)C2 (racemic) [Example 1-101, (rac)-8,10-Dimethyl-1-[3-(1-naphthyloxy)propyl]-6-phenyl-5,6,7,8-tetrahydro-4H-pyrazolo[3′,4′:6,7][1,4]diazonino[8,9,1-hi]indole-2-carboxylic Acid] | > 3.3e-05 | 1.97e-05 | 0.319 | > 33 | > 33 | > 3.3e-05 | > 3.3e-05 | 1.05e-05 |  |  |  |  |  |  |  | 
3 | COc1cc2cc(c1)-c1cccc3c(CCCOc4cccc5c4CCCC5)c(C(=O)O)n(c13)CCOCCO2 (racemic) [Example 1-118, (rac)-12-Methoxy-1-[3-(5,6,7,8-tetrahydronaphthalen-1-yloxy)propyl]-4,57,8-tetrahydro-10,14-(metheno)[1,4,7]dioxazacyclotetradecino[9,8,7-hi]indole-2-carboxylic Acid] | > 3.3e-05 | 3.25e-05 | 2.18 | > 33 | > 33 | > 3.3e-05 | > 3.3e-05 | 2.2e-05 |  |  |  |  |  |  |  | 
4 | COc1cc2cc(c1)-c1cccc3c(CCCOc4cccc5ccccc45)c(C(=O)O)n(c13)CCOCCO2 (racemic) [Example 1-119, (rac)-12-Methoxy-1-[3-(1-naphthyloxy)propyl]-4,5,7,8-tetrahydro-10,14-(metheno)[1,4,7]dioxazacyclotetradecino[9,8,7-hi]indole-2-carboxylic Acid] | > 3.3e-05 | > 3.3e-05 | 2.31 | > 33 | > 33 | > 3.3e-05 | > 3.3e-05 | > 3.3e-05 |  |  |  |  |  |  |  | 
5 | Cn1nc(COc2ccc(N3CCN(CC(=O)O)CC3)cc2)c2c1COCCCCn1c(C(=O)O)c(CCCOc3cccc4ccccc34)c3cccc-2c31 (racemic) [Example 1-120, (rac)-3-({4-[4-(Carboxymethy)piperazin-1-yl]phenoxy}methyl)-1-methyl-7-[3-(naphthalen-1-yloxy)propyl]-1,10,11,12,13,15-hexahydropyrazolo[4′,3′:9,10][1,6]oxazacycloundecino[8,7,6-hi]indole-8-carboxylic Acid] | > 3.3e-05 | > 3.3e-05 | 0.00466 | > 33 | > 33 | > 3.3e-05 | > 3.3e-05 | > 3.3e-05 |  |  |  |  |  |  |  | 
6 | COc1cc2cc(c1)-c1cccc3c(CCCOc4cccc5ccccc45)c(C(=O)O)n(c13)CCCCCO2 (racemic) [Example 1-122, (rac)-12-Methoxy-1-[3-(naphthalen-1-yloxy)propyl]-5,6,7,8-tetrahydro-4H-10,14-(metheno)[1,7]oxazacyclotetradecino[9,8,7-hi]indole-2-carboxylic Acid] | 2.77e-05 | 2.8e-05 | 6.88 | > 33 | > 33 | > 3.3e-05 | > 3.3e-05 | > 3.3e-05 |  |  |  |  |  |  |  | 
7 | CN(C)S(=O)(=O)N1CCN(c2ccc(OCc3nn(C)c4c3-c3cccc5c(CCCOc6cccc7ccccc67)c(C(=O)O)n(c35)CCCN(Cc3ccccc3)C4)cc2)CC1 (racemic) [Example 004, (rac)-(7-benzyl-11-({4-[4dimethylsulfamoyl)piperazin-1-yl]phenoxy}methyl)-9-methyl-1-[3-(1-naphthyloxy)propyl]4,5,6,7,8,9-hexahydropyrazolo[3′,4′:7,8][1,5]diazecino[9,10,1-hi]indole-2-carboxylic Acid] | 1.09e-05 | 7.13e-06 | 0.117 | 25.8 | 12.5 | 1.47e-05 | 2.57e-05 | 2.04e-06 |  |  |  |  |  |  |  | 
8 | COC1(c2ccc(OCc3nn(C)c4c3-c3cccc5c(CCCOc6cccc7ccccc67)c(C(=O)O)n(c35)CCCCOC4)cc2)CCOCC1 (single isomer, unassigned) [Example 1-66, 3-{[4-(4-methoxytetrahydro-2H-pyran-4-yl)phenoxy]methyl}-1-methyl-7-[3-(naphthalen-1-yloxy)propyl]-1,10,11,12,13,15-hexahydropyrazolo[4′,3′:9,10][1,6]oxazacycloundecino[8,7,6-hi]indole-8-carboxylic Acid] | 1.18e-05 | 1.22e-05 | 0.00943 |  |  |  |  |  | 8.47 | 6.15 | 9.23e-06 M and 1.76e-05 M |  |  |  |  | 
9 | CC(=O)N1CCN(c2ccc(OCc3nn(C)c4c3-c3cccc5c(CCCOc6cccc7ccccc67)c(C(=O)O)n(c35)CCCCOC4)cc2)CC1 (single isomer, unassigned; enantiomer 1) [Example 1-25, 3-{[4-(4-acetylpiperazin-1-yl)phenoxy]methyl}-1-methyl-7-[3-(naphthalen-1-yloxy)propyl]-1,10,11,12,13,15-hexahydropyrazolo[4′,3′:9,10][1,6]oxazacycloundecino[8,7,6-hi]indole-8-carboxylic Acid (Enantiomer 1)] |  | 1.7e-05 | 0.131 |  |  |  |  |  | 3.89 | 1.61 |  | 1.08e-05 | 2.86e-05 | 2.68e-06 | 4.02e-06 | 
10 | COCC(=O)N1CCN(c2ccc(OCc3nn(C)c4c3-c3cccc5c(CCCOc6cccc7ccccc67)c(C(=O)O)n(c35)CCCCOC4)cc2)CC1 (single isomer, unassigned; enantiomer 1) [Example 1-28, 3-({4-[4-(methoxyacetyl)piperazin-1-yl]phenoxy}methyl)-1-methyl-7-[3-(naphthalen-1-yloxy)propyl]-1,10,11,12,13,15-hexahydropyrazolo[4′,3′:9,10][1,6]oxazacycloundecino[8,7,6-hi]indole-8-carboxylic Acid (Enantiomer 1)] |  | 3.12e-05 | 0.0709 |  |  |  |  |  | > 33 | > 33 |  | 1.98e-05 |  | > 3.3e-05 | > 3.3e-05 | 
11 | CC(=O)N1CCN(c2ccc(OCc3nn(C)c4c3-c3cccc5c(CCCOc6cccc7ccccc67)c(C(=O)O)n(c35)CCCCOC4)cc2)CC1 (single isomer, unassigned; enantiomer 2) [Example 1-26, 3-{[4-(4-acetylpiperazin-1-yl)phenoxy]methyl}-1-methyl-7-[3-(naphthalen-1-yloxy)propyl]-1,10,11,12,13,15-hexahydropyrazolo[4′,3′:9,10][1,6]oxazacycloundecino[8,7,6-hi]indole-8-carboxylic Acid (Enantiomer 2)] |  |  | 0.00163 |  |  |  |  |  | > 33 | > 33 |  | 2e-06 |  | > 3.3e-05 | > 3.3e-05 | 2.48e-05
